# Assay results taken from patent publication US20070293568A1, “Neurocyte Protective Agent” (priority 2006, published 2007).
# What was measured:
# [1] = system: TH positive cell specific MnSOD-deficient mice (KO mice); assay: Body weight change of KO mice given YAX in the diet; assay type: in vivo; settings: overall conclusion from body weight, life span and behavior in TH positive cell specific MnSOD-deficient mice
# Text: As genetically modified mice serving as models for neurodegeneration, in which MnSOD has been specifically deficient in dopamine cells of the substantia nigra and noradrenaline cells of the locus ceruleus in the central nervous system, tyrosine hydroxylase (TH) positive cell specific MnSOD-deficient mice were generated based on the method described in WO 2004/014131. Specifically, first, a homozygous MnSOD flox mouse (lox/lox, +/+) was mated with a TH-Cre transgenic mouse controlled by a TH (tyrosine hydroxylase) promoter, so that heterozygous mice (lox/w, Cre/+) having the TH-Cre transgene were generated. Then, the heterozygous mouse and a MnSOD flox mouse were mated to generate the TH positive cell specific MnSOD-deficient mice (lox/lox, Cre/+) of interest.
# The YAX prepared in Preparation Example 2 was used as the astaxanthin, and this was administered with the diet. […] It should be noted that for comparison, the KO mice in the control group fed with an ordinary diet not containing YAX were monitored in the same manner.
# The body weight was measured once a week, and a Student's t-test was performed. The life span was analyzed using the Kaplan-Meier method. […] The behavior was analyzed by the footprinting test. […] Specifically, ink is applied to the hind feet of the mice and the mice are allowed to walk, and the width of the footprints left behind is analyzed. […]
# [2] = system: mice, cerebral ischemia/reperfusion; settings: reperfusing after cerebral ischemia, astaxanthin administered; cited from earlier work
# [3] = system: lipid peroxide in the blood; settings: cited from earlier work
structure (smiles),measurement,setting,value
CC1=C(/C=C/C(C)=C/C=C/C(C)=C/C=C/C=C(C)/C=C/C=C(C)/C=C/C2=C(C)C(=O)[C@@H](O)CC2(C)C)C(C)(C)C[C@H](O)C1=O [astaxanthin],neurocyte protective activity,[1],powerful neurocyte protective activity
same,depression in motor ability,[2],suppressed
same,lipid peroxide in the blood,[3],suppresses
